Experimental data: patent publication US5228957A, “Separation of methyl T-butyl ether from close boiling C5 hydrocarbons by extractive distillation” (priority 1993, dated 1993)
Where a name gives a salt, the structure may show the parent alone. Read-outs that look alike come from different tables or passages of the source.

Legend:
Format in all cases: physicochemical
[1] = Extractive distillation agent separating methyl t-butyl ether from n-pentane-cyclopentane mixtures (vapor-liquid equilibrium still)
[2] = Extractive distillation agent separating methyl t-butyl ether from 1-pentene (vapor-liquid equilibrium still)
[3] = Extractive distillation agent separating methyl t-butyl ether from cyclopentane (vapor-liquid equilibrium still); settings: cyclopentane to methyl t-butyl ether, with agent
Source text: The data in Tables 2-6 was obtained in a vapor-liquid equilibrium still.

[4] = Relative volatility of methyl t-butyl ether from close boiling hydrocarbons, no agent (vapor-liquid equilibrium still); settings: hydrocarbon to methyl t-butyl ether
Source text: I have discovered that certain organic compounds will effectively increase the relative volatility between methyl t-butyl ether and close boiling hydrocarbons when employed as the agent in extractive distillation. The data in Tables 2-6 was obtained in a vapor-liquid equilibrium still.

[5] = cyclopentane to methyl t-butyl ether, n-pentane-cyclopentane mixture, with agent
[6] = n-pentane to methyl t-butyl ether, n-pentane-cyclopentane mixture, with agent
[7] = 1-pentene to methyl t-butyl ether, with agent

Structure (SMILES)	Relative Volatility CyP/MTBE [1, 5]	Relative Volatility Pnt/MTBE [1, 6]	also measured
COCC(C)OC(C)=O (stereo not shown) [1-Methoxy-2-propanol acetate]	1.9	3.3	Relative Volatility [2, 7]: 3.5
CN1CCCC1=O [1-Methyl-2-pyrrolidinone]	1.8	3.9	Relative Volatility [3]: 1.8
CCC[N+](=O)[O-] [1-Nitropropane]	2.8	5.2	–
C=CCCC [1-Pentene]	–	–	Relative Volatility [4]: 1.7; Relative Volatility ([4]; listed as 1-pentene): less than 1.7
CC(=O)CC(C)=O [2,4-Pentanedione]	1.9	3.4	–
CC(C)[N+](=O)[O-] [2-Nitropropane]	2.2	3.8	–
CC(=O)c1ccccc1 [Acetophenone]	1.7	1.7	Relative Volatility [3]: 1.6
C1CCCC1 [Cyclopentane]	–	–	Relative Volatility [4]: 1.55; Relative Volatility ([4]; listed as cyclopentane): less than 1.7
CCOC(=O)OCC [Diethyl carbonate]	1.8	3.1	–
CCOC(=O)/C=C\C(=O)OCC [Diethyl maleate]	1.8	3.4	–
CCOC(=O)CC(=O)OCC [Diethyl malonate]	2.0	3.7	Relative Volatility [2, 7]: 3.1
CC(C)CC(=O)CC(C)C [Diisobutyl ketone]	1.5	2.5	–
CN(C)C=O [Dimethylformamide]	–	–	Relative Volatility [3]: 2.0; Relative Volatility CyP/MTBE [1]: 2.3; Relative Volatility Pnt/MTBE [1]: 4.7; Relative Volatility [2]: 3.0
C[S+](C)[O-] [Dimethylsulfoxide]	2.7	2.8	Relative Volatility [3]: 1.8; Relative Volatility [2, 7]: 3.9
CCOC(C)=O [Ethyl acetate]	1.8	2.9	–
CCOC(=O)CC(C)=O [Ethyl acetoacetate]	1.9	4.2	–

Structure (SMILES)	Relative Volatility CyP/MTBE [1, 5]	Relative Volatility Pnt/MTBE [1, 6]	also measured
CCOC(=O)CC(C)C [Ethyl isovalerate]	1.5	2.5	–
CC(=O)OCCOC(C)=O [Ethylene glycol diacetate]	1.8	3.3	Relative Volatility [2, 7]: 5.5
COCCO [Ethylene glycol methyl ether]	–	–	Relative Volatility [2]: 3.6
CC1=CC(=O)CC(C)(C)C1 [Isophorone]	1.5	2.8	–
CC(=O)OC(C)C [Isopropyl acetate]	1.8	3.1	–
CC(=O)CCC(C)C [Methyl isoamyl ketone]	1.7	2.8	Relative Volatility [2, 7]: 2.6
COC(=O)c1ccccc1O [Methyl salicylate]	1.6	1.9	–
CC[N+](=O)[O-] [Nitroethane]	–	–	Relative Volatility CyP/MTBE [1]: 2.9; Relative Volatility Pnt/MTBE [1]: 5.2; Relative Volatility [2]: 3.0
C[N+](=O)[O-] [Nitromethane]	–	–	Relative Volatility CyP/MTBE [1]: 1.6; Relative Volatility Pnt/MTBE [1]: 1.5
CC(O)COc1ccccc1 (stereo not shown) [Propylene glycol phenyl ether]	2.0	4.2	Relative Volatility [2, 7]: 3.2
O=S1(=O)CCCC1 [Sulfolane]	3.6	2.4	Relative Volatility [3]: 3.6; Relative Volatility [2]: 4.4
CC(=O)OCC(COC(C)=O)OC(C)=O [Triacetin]	1.9	3.6	–
CCCCCCOC=O [n-Hexyl formate]	1.6	1.6	–
CCCCC [n-Pentane]	–	–	Relative Volatility [4]: 1.6; Relative Volatility ([4]; listed as n-pentane): less than 1.7
CCCOC(C)=O [n-Propyl acetate]	1.8	2.6	–
CC(C)(C)O [t-Butanol]	–	–	Relative Volatility [3]: 2.2
